Here are results for 29 molecules from US20250186437A1, “CARBOLINE COMPOUNDS AND USE THEREOF” (PTC Therapeutics, Inc., priority 2021, published 2025).

pIC50: −log10 of the molar value.

The experiment has as its system MOLM-13 cells. Nature of the experiment: MOLM-13 Cell Proliferation Assay (indicator of DHODH inhibition). The experiment is classed as cell-based. The settings on record: Homo sapiens, 72 Hours of culture, CellTiter-Glo, no uridine. The gist of the method: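 Proliferation readout via CellTiter-Glo luminescence after 72 h compound treatment (37 °C, 5% CO2, 0.5% DMSO) of MOLM-13 cells seeded at 10^4 per well in RPMI 1640/10% FBS, used as a DHODH-inhibition indicator since these cells rely on de novo pyrimidine synthesis.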
In general terms: In ATP-based viability assays light output follows the ATP content of the culture.

For the molecule `Cc1ccc([C@H]2c3[nH]c4ccc(Cl)cc4c3CCN2c2ncc(F)cn2)cc1` [Compound 393, (1S)-6-chloro-2-(5-fluoropyrimidin-2-yl)-1-(4-methylphenyl)-2,3,4,9-tetrahydro-1H-pyrido[3,4-b]indole], the negative-log IC50 (pIC50) (usually −log10 of the IC50, conventionally taken in molar units) was 7.90.
In the case of `Fc1ccc(C2c3[nH]c4ccc(Cl)cc4c3CCN2c2nccc(C(F)(F)F)n2)c(F)c1F` (centres unmarked) [Compound 263, 6-chloro-2-[4-(trifluoromethyl)pyrimidin-2-yl]-1-(2,3,4-trifluorophenyl)-2,3,4,9-tetrahydro-1H-pyrido[3,4-b]indole] it was 8.60; in that of `Fc1cc(Cl)ccc1C1c2[nH]c3ccc(Cl)cc3c2CCN1c1nccc(C(F)(F)F)n1` (centres unmarked) [Compound 267, 6-chloro-1-(4-chloro-2-fluorophenyl)-2-[4-(trifluoromethyl)pyrimidin-2-yl]-2,3,4,9-tetrahydro-1H-pyrido[3,4-b]indole], 8.57.
In turn, `Cc1nc(N2CCc3c([nH]c4cc(F)c(Cl)cc34)C2c2ccc(CCCCO)cc2)nc(C)c1F` (centres unmarked) [Compound 249, 4-{4-[6-chloro-7-fluoro-2-(5-fluoro-4,6-dimethylpyrimidin-2-yl)-2,3,4,9-tetrahydro-1H-pyrido[3,4-b]indol-1-yl]phenyl}butan-1-ol] had a pIC50 of 8.66.
In the case of `Fc1c(Cl)ccc(C2c3[nH]c4ccc(Cl)cc4c3CCN2c2nccc(C(F)(F)F)n2)c1F` (centres unmarked) [Cpd 144, 6-chloro-1-(4-chloro-2,3-difluorophenyl)-2-[4-(trifluoromethyl)pyrimidin-2-yl]-2,3,4,9-tetrahydro-1H-pyrido[3,4-b]indole] it was 9.15; in that of `Cc1nc(N2CCc3c([nH]c4ccc(Cl)c(F)c34)C2c2cccc(F)c2F)nc(C)c1F` (centres unmarked) [Compound 117, 6-chloro-1-(2,3-difluorophenyl)-5-fluoro-2-(5-fluoro-4,6-dimethylpyrimidin-2-yl)-2,3,4,9-tetrahydro-1H-pyrido[3,4-b]indole], 8.70.
As for `Cc1cc(O)c2[nH]c3c(c2c1)CCN(c1nccc(C(F)(F)F)n1)C3c1ccc(C)c(F)c1F` (centres unmarked) [Compound 276, 1-(2,3-difluoro-4-methylphenyl)-6-methyl-2-[4-(trifluoromethyl)pyrimidin-2-yl]-2,3,4,9-tetrahydro-1H-pyrido[3,4-b]indol-8-ol], the figure is 9.22; as for `FC(F)(F)c1nc(N2CCOCC2)nc(N2CCc3c([nH]c4ccc(Cl)cc34)[C@@H]2c2cnc(N3CCOCC3)nc2)n1` [Compound 445, (1S)-6-chloro-1-[2-(morpholin-4-yl)pyrimidin-5-yl]-2-[4-(morpholin-4-yl)-6-(trifluoromethyl)-1,3,5-triazin-2-yl]-2,3,4,9-tetrahydro-1H-pyrido[3,4-b]indole], 8.28; as for `Cc1ccc(C2c3[nH]c4ccc(Cl)cc4c3CCN2c2nc(C)nc(C)n2)c(F)c1` (centres unmarked) [Compound 452, 6-chloro-2-(4,6-dimethyl-1,3,5-triazin-2-yl)-1-(2-fluoro-4-methylphenyl)-2,3,4,9-tetrahydro-1H-pyrido[3,4-b]indole], 8.29.
As for `Cc1ccc(C2c3[nH]c4cc(F)c(Cl)cc4c3CCN2c2nc(C#N)cc(C#N)n2)c(F)c1F` (centres unmarked) [Compound 216, 2-[6-chloro-1-(2,3-difluoro-4-methylphenyl)-7-fluoro-1,3,4,9-tetrahydro-2H-pyrido[3,4-b]indol-2-yl]pyrimidine-4,6-dicarbonitrile], the figure is 8.32.
Consider `Cc1cc(C)nc(N2CCc3c([nH]c4cc(F)c(Cl)cc34)C2c2ccc(C#N)cc2)n1` (centres unmarked) [Compound 93, 4-[6-chloro-2-(4,6-dimethylpyrimidin-2-yl)-7-fluoro-2,3,4,9-tetrahydro-1H-pyrido[3,4-b]indol-1-yl]benzonitrile], for which the pIC50 was 8.01.
In turn, `FC(F)(F)c1ccnc(N2CCc3c([nH]c4ccc(-n5cccn5)cc34)C2c2cnc(N3CCOCC3)nc2)n1` (centres unmarked) [Compound 301, 1-[2-(morpholin-4-yl)pyrimidin-5-yl]-6-(1H-pyrazol-1-yl)-2-[4-(trifluoromethyl)pyrimidin-2-yl]-2,3,4,9-tetrahydro-1H-pyrido[3,4-b]indole] showed a negative logarithm of the IC50 (pIC50) of 7.62.
Take `N#Cc1ccc(C2c3[nH]c4c(F)cc(Cl)cc4c3CCN2c2ncc(F)cn2)cc1` (centres unmarked) [Compound 33, 4-[6-chloro-8-fluoro-2-(5-fluoropyrimidin-2-yl)-2,3,4,9-tetrahydro-1H-pyrido[3,4-b]indol-1-yl]benzonitrile]: the pIC50 is 6.92.
On to `Cc1cc(C)nc(N2CCc3c([nH]c4cc(F)c(Cl)cc34)C2c2ccc(C)c(F)c2F)n1` (centres unmarked) [Compound 132, 6-chloro-1-(2,3-difluoro-4-methylphenyl)-2-(4,6-dimethylpyrimidin-2-yl)-7-fluoro-2,3,4,9-tetrahydro-1H-pyrido[3,4-b]indole], for which the negative logarithm of the IC50 (pIC50) was 8.68.
In turn, `Fc1c(Cl)ccc2[nH]c3c(c12)CCN(c1nccc(C(F)(F)F)n1)C3c1cnc(N2CCOCC2)nc1` (centres unmarked) [Compound 200, 6-chloro-5-fluoro-1-[2-(morpholin-4-yl)pyrimidin-5-yl]-2-[4-(trifluoromethyl)pyrimidin-2-yl]-2,3,4,9-tetrahydro-1H-pyrido[3,4-b]indole] showed a pIC50 of 8.68.
The molecule `Cc1ccc(C2c3[nH]c4cc(F)c(Cl)cc4c3CCN2c2ncc(F)c(C)n2)c(F)c1F` (centres unmarked) [Compound 125, 6-chloro-1-(2,3-difluoro-4-methylphenyl)-7-fluoro-2-(5-fluoro-4-methylpyrimidin-2-yl)-2,3,4,9-tetrahydro-1H-pyrido[3,4-b]indole] gave a negative-log IC50 (pIC50) of 8.49.
In the case of `CN(C)c1ccc(C2c3[nH]c4cc(F)c(Cl)cc4c3CCN2c2nccc(C(F)(F)F)n2)c(F)n1` (centres unmarked) [Compound 208, 5-{6-chloro-7-fluoro-2-[4-(trifluoromethyl)pyrimidin-2-yl]-2,3,4,9-tetrahydro-1H-pyrido[3,4-b]indol-1-yl}-6-fluoro-N,N-dimethylpyridin-2-amine] it was 8.66.
As for `N#Cc1ccc(C2c3[nH]c4ccc(Cl)cc4c3CCN2c2nccc(C(F)(F)F)n2)cc1` (centres unmarked) [Compound 447, 4-{6-chloro-2-[4-(trifluoromethyl)pyrimidin-2-yl]-2,3,4,9-tetrahydro-1H-pyrido[3,4-b]indol-1-yl}benzonitrile], the figure is 8.32; as for `N#Cc1ccc(C2c3[nH]c4cc(F)c(Cl)cc4c3CCN2c2nccc(C(F)(F)F)n2)cc1` (centres unmarked) [Compound 100, 4-{6-chloro-7-fluoro-2-[4-(trifluoromethyl)pyrimidin-2-yl]-2,3,4,9-tetrahydro-1H-pyrido[3,4-b]indol-1-yl}benzonitrile], 8.19; as for `Cc1ccnc(N2CCc3c([nH]c4cc(F)c(Cl)cc34)C2c2ccc(C(F)(F)F)cc2)n1` (centres unmarked) [Compound 81, 6-chloro-7-fluoro-2-(4-methylpyrimidin-2-yl)-1-[4-(trifluoromethyl)phenyl]-2,3,4,9-tetrahydro-1H-pyrido[3,4-b]indole], 7.40.
As for `C[C@@H]1CN(c2ncc([C@H]3c4[nH]c5ccc(Cl)cc5c4CCN3c3nc(C(F)(F)F)cc(C(F)(F)F)n3)cn2)CCN1` [Compound 511, (1S)-2-[4,6-bis(trifluoromethyl)pyrimidin-2-yl]-6-chloro-1-{2-[(3R)-3-methylpiperazin-1-yl]pyrimidin-5-yl}-2,3,4,9-tetrahydro-1H-pyrido[3,4-b]indole], the figure is 8.42; as for `C=Cc1ccc(C2c3[nH]c4cc(F)c(Cl)cc4c3CCN2c2ncc(F)cn2)cc1` (centres unmarked) [Compound 79, 6-chloro-1-(4-ethenylphenyl)-7-fluoro-2-(5-fluoropyrimidin-2-yl)-2,3,4,9-tetrahydro-1H-pyrido[3,4-b]indole], 7.68; as for `N#Cc1cc(C(F)(F)F)nc(N2CCc3c([nH]c4ccc(Cl)cc34)[C@@H]2c2ccc(N3CCOCC3)nc2)n1` [Compound 433, 2-{(1S)-6-chloro-1-[6-(morpholin-4-yl)pyridin-3-yl]-1,3,4,9-tetrahydro-2H-pyrido[3,4-b]indol-2-yl}-6-(trifluoromethyl)pyrimidine-4-carbonitrile], 8.96.
Turning to `N#Cc1ncnc(N2CCc3c([nH]c4ccc(Cl)cc34)[C@@H]2c2cnc(N3CCOCC3)nc2)n1` [Compound 414, 4-{(1S)-6-chloro-1-[2-(morpholin-4-yl)pyrimidin-5-yl]-1,3,4,9-tetrahydro-2H-pyrido[3,4-b]indol-2-yl}-1,3,5-triazine-2-carbonitrile], the negative logarithm of the IC50 (pIC50) was 7.42.
As for `Fc1ccc(C2c3[nH]c4cc(F)c(Cl)cc4c3CCN2c2ncc(F)cn2)cc1` (centres unmarked) [Compound 5, 6-chloro-7-fluoro-1-(4-fluorophenyl)-2-(5-fluoropyrimidin-2-yl)-2,3,4,9-tetrahydro-1H-pyrido[3,4-b]indole], the figure is 7.17.
In the case of `Cc1nc(N2CCc3c([nH]c4ccc(Cl)c(F)c34)C2c2cccc(F)c2F)ncc1F` (centres unmarked) [Compound 113, 6-chloro-1-(2,3-difluorophenyl)-5-fluoro-2-(5-fluoro-4-methylpyrimidin-2-yl)-2,3,4,9-tetrahydro-1H-pyrido[3,4-b]indole], the pIC50 is 8.59.
The molecule `Cc1ccc(C2c3[nH]c4cc(F)c(Cl)cc4c3CCN2c2nc(C)cc(C)n2)cc1` (centres unmarked) [Compound 66, 6-chloro-2-(4,6-dimethylpyrimidin-2-yl)-7-fluoro-1-(4-methylphenyl)-2,3,4,9-tetrahydro-1H-pyrido[3,4-b]indole] had a pIC50 of 8.01.
For the molecule `Cc1ccc(C2c3[nH]c4ccc(Cl)cc4c3CCN2c2nc(C(F)(F)F)cc(C(F)(F)F)n2)cc1` (centres unmarked) [Compound 360, 2-[4,6-bis(trifluoromethyl)pyrimidin-2-yl]-6-chloro-1-(4-methylphenyl)-2,3,4,9-tetrahydro-1H-pyrido[3,4-b]indole], the pIC50 was 9.05.
`N#Cc1ccnc(N2CCc3c([nH]c4cc(F)c(Cl)cc34)C2c2ccc(C(F)(F)F)cc2)n1` (centres unmarked) [Compound 121, 2-{6-chloro-7-fluoro-1-[4-(trifluoromethyl)phenyl]-1,3,4,9-tetrahydro-2H-pyrido[3,4-b]indol-2-yl}pyrimidine-4-carbonitrile] had a pIC50 of 7.61.
